Source: PMC10955071, “AGRAMP: machine learning models for predicting antimicrobial peptides against phytopathogenic bacteria” (Frontiers in Microbiology, 2024)
Like-named read-outs stand apart in the source and are kept apart here. Ends that are not written are not given here.

What was measured:
Spiroplasma citri = conditions: cited from earlier work; for MIC: spiroplasma MIC from literature; for MIC concentration: S. citri, ref Béven et al. (1997)
Excerpt: Table 7 Aggregation values of AMPs, predicted AMPs, and predicted NOAMPs. | column: MIC; Lab assay || Figure 6 Charge density analysis of predicted antimicrobial peptides (AMPs) tested in minimum inhibitory concentration (MIC) assays. […] The secondary structure of each AMP is indicated at the bottom of the respective graph. […] Intriguingly, the LK peptides had higher aggregation propensities (in the high 40s and 50s), while the peptides in the 1997 study had slightly positive (5.7, 1.3) and negative (−1.3) aggregation scores when input into AGGRESCAN. The positive control, Mel ...

[1] = test system: Spiroplasma citri strain R8A2; conditions: for activity against Spiroplasma citri in MIC assay (Positive/Negative, figure heading): Figures 5 and 6, positive = high activity, negative = no activity in MIC assay; for MIC: S. citri R8A2, LD8A3 medium + fetal bovine serum, phenol red, OD560, 48 h, triplicate, Resistant = ineffective
[2] = ref Bevin2002 (Béven et al., 2003)
[3] = ref Bevin1997 (Béven et al., 1997)

KLLKLLLKLLLKLLK [LK15_3.6, LK peptide (leucine/lysine copolymer) from Béven et al., 2003]
MIC (Spiroplasma citri; [2]): 6.25 µM

KLLKLLLKLLLKLWK [LK15_W14_3.6, LK peptide (leucine/lysine copolymer) from Béven et al., 2003]
MIC (Spiroplasma citri; [2]): 6.25 µM

MAQSKRYKARLVAKRIHAVKKY [G221]
activity against Spiroplasma citri in MIC assay (Positive/Negative, figure heading) [1]: Negative | MIC [1]: Resistant

MARKAISKVIVGTRRKKKK [G66]
MIC [1]: Resistant

MCRRKGGLIGRAPPCRGRLAC [G9994]
MIC [1]: Resistant

MERRRLAAKLANKLVRIGWIG [I5196]
MIC [1]: Resistant

MFLLRRILKKLRTIFIQ [I3435]
MIC [1]: 50 µg/mL | SpiroC MIC (48hrs) ([1]; Set1, tested at 50, 25, 12.5 μg/mL, OD560, triplicate): 50 µg/mL

MGFLLKTLSHIRRVIRLII [G389]
MIC (48hrs) Resistant (R) [1]: 50 µg/mL

MGLGLHLLLAAALQGAKKKRKV [P2, synthetic peptide from Béven et al., 1997]
MIC concentration (Spiroplasma citri): 100 µM | MIC (Spiroplasma citri; [3]): 100 µM

MGLGLHLLVLAAALQGAKKKRKV [P3, synthetic peptide from Béven et al., 1997]
MIC concentration (Spiroplasma citri): 100 µM | MIC (Spiroplasma citri; [3]): 100 µM

MGLGLHLLVLAAALQGAWSQPKKKRKV [P1, synthetic peptide from Béven et al., 1997]
MIC concentration (Spiroplasma citri): 100 µM | MIC (Spiroplasma citri; [3]): 100 µM

MIDNKIGLVVKWLRSK [I3775]
MIC [1]: Resistant

MILKRVFRMKNKKASV [G10159]
MIC [1]: Resistant

MILRLPHLINCTTTGLISKITSYLG [I4992]
activity against Spiroplasma citri in MIC assay (Positive/Negative, figure heading) [1]: Negative | MIC [1]: Resistant

MILSVLKIFGVFRKRSRGN [I3440]
SpiroC MIC (48hrs) [1]: 25 µg/mL

MITGRQKALKFIKKKVGGIQ [G196]
MIC [1]: Resistant

MIVRIAIRRFLKGKRQIVKI [G33]
MIC (48hrs) Resistant (R) [1]: 25 µg/mL

MKSIKIKIKRLNSKNKKILILIFI [I970]
SpiroC MIC (48hrs) [1]: 25 µg/mL

MLIMRKIKKKKRKNRHI [G54]
MIC [1]: Resistant

MLKCHLVGFVRRLIN [I2572]
SpiroC MIC (48hrs) [1]: 25 µg/mL

MLLQRLIFKPIRIIWHT [I3441]
SpiroC MIC (48hrs) [1]: 25 µg/mL

MLNLKLIRLLRHRFAI [G15]
MIC (48hrs) Resistant (R) [1]: 50 µg/mL

MMKKVIKLQKMIALGKIVKRFSLY [I4455]
SpiroC MIC (48hrs) [1]: 12.5 µg/mL

MSRKLRKGKRQLKSPRFGKIVI [I2769]
MIC [1]: Resistant

MVSHLFCFKFIRNLRFKKIR [G19]
MIC (48hrs) Resistant (R) [1]: 50 µg/mL

Mellitin: positive control peptide in Béven et al., 1997
MIC (Spiroplasma citri; [3]): 0.39 to .78 µM
